Laboratory results published in US20230085307A1, “PYRIDAZINONE COMPOUND AND HERBICIDE” (NISSAN CHEMICAL CORPORATION, priority 2019, published 2023).

Assays:
oval-leafed pondweed [1] = test: Test Example 1: herbicidal activity, application before weed generation under submerged conditions (Table 16, symbol C); type: in vivo, oval-leafed pondweed (Monochoria vaginalis); details: 320 g/ha applied herbicide
How it was run: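 Submerged Wagner pots (alluvial soil, 4 cm water) sown with weed seeds and planted with 2.5-leaf rice seedlings; emulsifiable concentrate diluted in water applied to water surface on sowing day. Held in greenhouse at 25-30 °C; injury scored 0-5 by herbicidal rate after three weeks.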

late watergrass = test: Test Example 2: herbicidal activity, application during weed generation under submerged conditions (Table 17, symbol A); type: in vivo, late watergrass (Echinochloa oryzicola); details: AAH 320 g/ha; application during weed generation, submerged conditions
How it was run: (§1)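 Steps: fill Wagner pots with alluvial soil; add water to give 4 cm depth; sow the species mixed; grow under glass at 25–30° C.; at 1–2 leaves apply water-diluted emulsion formulation to the water surface at a fixed herbicide amount; score after 3 weeks.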

oval-leafed pondweed [2] = test: Test Example 2: herbicidal activity, application during weed generation under submerged conditions (Table 17, symbol C); type: in vivo, oval-leafed pondweed (Monochoria vaginalis); details: AAH 320 g/ha; application during weed generation, submerged conditions
How it was run: as §1

rice flat sedge = test: Test Example 3: herbicidal effect by foliage application, Wagner pot (Table 18, symbol E); type: in vivo, rice flat sedge (Cyperus iria); details: 320 g/ha
How it was run: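 Plants were sown in alluvial soil held under 0.1–0.5 cm standing water and grown 14 days in a greenhouse at 25–30 °C. An emulsifiable formulation, water-diluted to the set dose, was then sprayed onto the foliage, and effects were scored three weeks later using previously defined criteria.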

green foxtail [3] = test: Test Example 4: herbicidal effect by soil treatment (Table 19, symbol G); type: in vivo, green foxtail (Setaria viridis); details: amount of applied herbicide 320 g/ha
How it was run: (§2)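 Applied as a water-diluted emulsion, the compound was sprayed onto soil covering newly sown seeds. Evaluation came three weeks after application, in a greenhouse held at 25° C. to 30° C.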

wild oat [4] = test: Test Example 4: herbicidal effect by soil treatment (Table 19, symbol I); type: in vivo, wild oat (Avena fatua); details: amount of applied herbicide 320 g/ha
How it was run: as §2

blackgrass = test: Test Example 4: herbicidal effect by soil treatment (Table 19, symbol J); type: in vivo, blackgrass (Alopecurus myosuroides); details: amount of applied herbicide 320 g/ha
How it was run: as §2

Italian ryegrass [5] = test: Test Example 4: herbicidal effect by soil treatment (Table 19, symbol K); type: in vivo, Italian ryegrass (Lolium multiflorum); details: amount of applied herbicide 320 g/ha
How it was run: as §2

velvetleaf [6] = test: Test Example 4: herbicidal effect by soil treatment (Table 19, symbol M); type: in vivo, velvetleaf (Abutilon theophrasti); details: amount of applied herbicide 320 g/ha
How it was run: as §2

redroot pigweed = test: Test Example 4: herbicidal effect by soil treatment (Table 19, symbol N); type: in vivo, redroot pigweed (Amaranthus retroflexus); details: amount of applied herbicide 320 g/ha
How it was run: as §2

chickweed = test: Test Example 4: herbicidal effect by soil treatment (Table 19, symbol P); type: in vivo, common chickweed (Stellaria media); details: amount of applied herbicide 320 g/ha
How it was run: as §2

southern crabgrass = test: Test Example 5: herbicidal effect by foliage application, plastic box (Table 20, symbol F); type: in vivo, southern crabgrass (Digitaria ciliaris); details: foliage application, 320 g/ha, three weeks after application
How it was run: (§3)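 Sow seeds spot-wise in sterilized diluvial soil; cover with ~1.5 cm soil. Grow 14 days in greenhouse, 25° C. to 30° C. Spray foliage with emulsion diluted to predetermined amount. Rate effect after 3 weeks.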

green foxtail [7] = test: Test Example 5: herbicidal effect by foliage application, plastic box (Table 20, symbol G); type: in vivo, green foxtail (Setaria viridis); details: foliage application, 320 g/ha, three weeks after application
How it was run: as §3

wild oat [8] = test: Test Example 5: herbicidal effect by foliage application, plastic box (Table 20, symbol I); type: in vivo, wild oat (Avena fatua); details: foliage application, 320 g/ha, three weeks after application
How it was run: as §3

Italian ryegrass [9] = test: Test Example 5: herbicidal effect by foliage application, plastic box (Table 20, symbol K); type: in vivo, Italian ryegrass (Lolium multiflorum); details: foliage application, 320 g/ha, three weeks after application
How it was run: as §3

velvetleaf [10] = test: Test Example 5: herbicidal effect by foliage application, plastic box (Table 20, symbol M); type: in vivo, velvetleaf (Abutilon theophrasti); details: foliage application, 320 g/ha, three weeks after application
How it was run: as §3

persian speedwell = test: Test Example 5: herbicidal effect by foliage application, plastic box (Table 20, symbol R); type: in vivo, Persian speedwell (Veronica persica); details: foliage application, 320 g/ha, three weeks after application
How it was run: as §3

| SMILES | Herbicidal effect on C: oval-leafed pondweed (grade 0-5) (oval-leafed pondweed [1]) | herbicidal effect rating, A: late watergrass (late watergrass) | herbicidal effect rating, C: oval-leafed pondweed (oval-leafed pondweed [2]) | herbicidal effect on E (rice flat sedge), rating 0-5 (rice flat sedge) | herbicidal effect rating, G: green foxtail (green foxtail [3]) | herbicidal effect rating, I: wild oat (wild oat [4]) | herbicidal effect rating, J: blackgrass (blackgrass) | herbicidal effect rating, K: Italian ryegrass (Italian ryegrass [5]) | herbicidal effect rating, M: velvetleaf (velvetleaf [6]) | herbicidal effect rating, N: redroot pigweed (redroot pigweed) | herbicidal effect rating, P: chickweed (chickweed) | herbicidal effect grade, F: southern crabgrass (southern crabgrass) | herbicidal effect grade, G: green foxtail (green foxtail [7]) | herbicidal effect grade, I: wild oat (wild oat [8]) | herbicidal effect grade, K: Italian ryegrass (Italian ryegrass [9]) | herbicidal effect grade, M: velvetleaf (velvetleaf [10]) | herbicidal effect grade, R: persian speedwell (persian speedwell) |
| --- | --- | --- | --- | --- | --- | --- | --- | --- | --- | --- | --- | --- | --- | --- | --- | --- | --- |
| CCCC(=O)Oc1c(C)nn(C)c(=O)c1-c1c(-c2ccc(OCC)cc2)sc2ccccc12 [1-014] | 5 (Herbicidal rate of 90% or more (almost completely withered)) | 3 (Herbicidal rate of 40% or more and less than 70%) | 3 (Herbicidal rate of 40% or more and less than 70%) | 5 (Herbicidal rate of 90% or more (almost completely withered)) | 1 (Herbicidal rate of 5% or more and less than 20%) | 0 (Herbicidal rate of 5% or less (almost no effect)) | 0 (Herbicidal rate of 5% or less (almost no effect)) | 0 (Herbicidal rate of 5% or less (almost no effect)) | 0 (Herbicidal rate of 5% or less (almost no effect)) | 0 (Herbicidal rate of 5% or less (almost no effect)) | 4 (Herbicidal rate of 70% or more and less than 90%) | 0 (Herbicidal rate of 5% or less (almost no effect)) | 4 (Herbicidal rate of 70% or more and less than 90%) | 1 (Herbicidal rate of 5% or more and less than 20%) | 3 (Herbicidal rate of 40% or more and less than 70%) | 4 (Herbicidal rate of 70% or more and less than 90%) | 5 (Herbicidal rate of 90% or more (almost completely withered)) |
| CCCOc1ccccc1-c1sc2ccccc2c1-c1c(O)c(C)nn(C)c1=O [1-015] | 3 (Herbicidal rate of 40% or more and less than 70%) | 3 (Herbicidal rate of 40% or more and less than 70%) | 2 (Herbicidal rate of 20% or more and less than 40%) | 5 (Herbicidal rate of 90% or more (almost completely withered)) | 4 (Herbicidal rate of 70% or more and less than 90%) | 0 (Herbicidal rate of 5% or less (almost no effect)) | 4 (Herbicidal rate of 70% or more and less than 90%) | 0 (Herbicidal rate of 5% or less (almost no effect)) | 0 (Herbicidal rate of 5% or less (almost no effect)) | 0 (Herbicidal rate of 5% or less (almost no effect)) | 3 (Herbicidal rate of 40% or more and less than 70%) | 3 (Herbicidal rate of 40% or more and less than 70%) | 4 (Herbicidal rate of 70% or more and less than 90%) | 3 (Herbicidal rate of 40% or more and less than 70%) | 4 (Herbicidal rate of 70% or more and less than 90%) | 5 (Herbicidal rate of 90% or more (almost completely withered)) | 5 (Herbicidal rate of 90% or more (almost completely withered)) |
| Cc1nn(C)c(=O)c(-c2c(-c3ccccc3OC(F)(F)F)sc3ccccc23)c1O [1-030] | 4 (Herbicidal rate of 70% or more and less than 90%) | 1 (Herbicidal rate of 5% or more and less than 20%) | 3 (Herbicidal rate of 40% or more and less than 70%) | 4 (Herbicidal rate of 70% or more and less than 90%) | 4 (Herbicidal rate of 70% or more and less than 90%) | 1 (Herbicidal rate of 5% or more and less than 20%) | 1 (Herbicidal rate of 5% or more and less than 20%) | 3 (Herbicidal rate of 40% or more and less than 70%) | 3 (Herbicidal rate of 40% or more and less than 70%) | 5 (Herbicidal rate of 90% or more (almost completely withered)) | 5 (Herbicidal rate of 90% or more (almost completely withered)) | 5 (Herbicidal rate of 90% or more (almost completely withered)) | 5 (Herbicidal rate of 90% or more (almost completely withered)) | 4 (Herbicidal rate of 70% or more and less than 90%) | 4 (Herbicidal rate of 70% or more and less than 90%) | 5 (Herbicidal rate of 90% or more (almost completely withered)) | 5 (Herbicidal rate of 90% or more (almost completely withered)) |
| CC(=O)c1ccc(-c2sc3ccccc3c2-c2c(O)c(C)nn(C)c2=O)cc1 [1-041] | 4 (Herbicidal rate of 70% or more and less than 90%) | 0 (Herbicidal rate of 5% or less (almost no effect)) | 3 (Herbicidal rate of 40% or more and less than 70%) | 5 (Herbicidal rate of 90% or more (almost completely withered)) | 3 (Herbicidal rate of 40% or more and less than 70%) | 1 (Herbicidal rate of 5% or more and less than 20%) | 0 (Herbicidal rate of 5% or less (almost no effect)) | 5 (Herbicidal rate of 90% or more (almost completely withered)) | 3 (Herbicidal rate of 40% or more and less than 70%) | 4 (Herbicidal rate of 70% or more and less than 90%) | 0 (Herbicidal rate of 5% or less (almost no effect)) | 4 (Herbicidal rate of 70% or more and less than 90%) | 1 (Herbicidal rate of 5% or more and less than 20%) | 1 (Herbicidal rate of 5% or more and less than 20%) | 5 (Herbicidal rate of 90% or more (almost completely withered)) | 5 (Herbicidal rate of 90% or more (almost completely withered)) | 5 (Herbicidal rate of 90% or more (almost completely withered)) |
